Data as given in ChEMBL document CHEMBL3822440, “Semi-synthesis and antiproliferative evaluation of PEGylated pentacyclic triterpenes” (Eur J Med Chem, 2016).

Columns and labels:
[1] = Cytotoxicity against mouse B16F10 cells assessed as growth inhibition after 72 hrs by MTT assay; assay type: functional, cell-based; details: B16-F10, 72 h
HT-29 [2] = assay: Cytotoxicity against human HT-29 cells assessed as growth inhibition after 72 hrs by MTT assay; assay type: functional, cell-based; details: HT-29, 72 h
HepG2 [3] = assay: Cytotoxicity against human HepG2 cells assessed as growth inhibition after 72 hrs by MTT assay; assay type: functional, cell-based; details: HepG2, 72 h
B16-F10 [4] = assay: Potency index, ratio of oleanolic acid IC50 to compound IC50 for mouse B16F10 cells; assay type: functional
HT-29 [5] = assay: Potency index, ratio of oleanolic acid IC50 to compound IC50 for human HT-29 cells; assay type: functional
HepG2 [6] = assay: Potency index, ratio of oleanolic acid IC50 to compound IC50 for human HepG2 cells; assay type: functional
[7] = Induction of apoptosis in mouse B16F10 cells assessed as live cells at cytotoxic IC50 after 72 hrs by Annexin V-FITC/propidium iodide staining based flow cytometry (reference value: 97.55 +/- 0.5%); assay type: functional, B16-F10
[8] = Induction of apoptosis in mouse B16F10 cells assessed as early apoptotic cells at cytotoxic IC50 after 72 hrs by Annexin V-FITC/propidium iodide staining based flow cytometry (reference value: 0.75 +/- 0.07%); assay type: functional, B16-F10
[9] = Induction of apoptosis in mouse B16F10 cells assessed as late apoptotic cells at cytotoxic IC50 after 72 hrs by Annexin V-FITC/propidium iodide staining based flow cytometry (reference value: 0.75 +/- 0.21%); assay type: functional, B16-F10
[10] = Induction of apoptosis in mouse B16F10 cells assessed as necrotic cells at cytotoxic IC50 after 72 hrs by Annexin V-FITC/propidium iodide staining based flow cytometry (reference value: 0.75 +/- 0.07%); assay type: functional, B16-F10
HT-29 [11] = assay: Induction of apoptosis in human HT-29 cells assessed as live cells at cytotoxic IC50 after 72 hrs by Annexin V-FITC/propidium iodide staining based flow cytometry (reference value: 96.65 +/- 0.78%); assay type: functional
HT-29 [12] = assay: Induction of apoptosis in human HT-29 cells assessed as early apoptotic cells at cytotoxic IC50 after 72 hrs by Annexin V-FITC/propidium iodide staining based flow cytometry (reference value: 1.65 +/- 0.07%); assay type: functional
HT-29 [13] = assay: Induction of apoptosis in human HT-29 cells assessed as late apoptotic cells at cytotoxic IC50 after 72 hrs by Annexin V-FITC/propidium iodide staining based flow cytometry (reference value: 0.65 +/- 0.35%); assay type: functional
HT-29 [14] = assay: Induction of apoptosis in human HT-29 cells assessed as necrotic cells at cytotoxic IC50 after 72 hrs by Annexin V-FITC/propidium iodide staining based flow cytometry (reference value: 1.05 +/- 0.35%); assay type: functional
HepG2 [15] = assay: Induction of apoptosis in human HepG2 cells assessed as live cells at cytotoxic IC50 after 72 hrs by Annexin V-FITC/propidium iodide staining based flow cytometry (reference value: 99.55 +/- 0.07%); assay type: functional
HepG2 [16] = assay: Induction of apoptosis in human HepG2 cells assessed as early apoptotic cells at cytotoxic IC50 after 72 hrs by Annexin V-FITC/propidium iodide staining based flow cytometry (reference value: 0.3 +/- 0.01%); assay type: functional
HepG2 [17] = assay: Induction of apoptosis in human HepG2 cells assessed as late apoptotic cells at cytotoxic IC50 after 72 hrs by Annexin V-FITC/propidium iodide staining based flow cytometry relative to control; assay type: functional
HepG2 [18] = assay: Induction of apoptosis in human HepG2 cells assessed as necrotic cells at cytotoxic IC50 after 72 hrs by Annexin V-FITC/propidium iodide staining based flow cytometry (reference value: 0.1 +/- 0.01%); assay type: functional
[19] = Cell cycle arrest in mouse B16F10 cells assessed as accumulation at G0/G1 phase at cytotoxic IC50 after 72 hrs by propidium iodide staining based flow cytometry (reference value: 50.69 +/- 0.61%); assay type: functional, B16-F10
[20] = Cell cycle arrest in mouse B16F10 cells assessed as accumulation at S phase at cytotoxic IC50 after 72 hrs by propidium iodide staining based flow cytometry (reference value: 48.31 +/- 0.74%); assay type: functional, B16-F10
[21] = Cell cycle arrest in mouse B16F10 cells assessed as accumulation at G2/M phase at cytotoxic IC50 after 72 hrs by propidium iodide staining based flow cytometry (reference value: 1.01 +/- 0.13%); assay type: functional, B16-F10
HT-29 [22] = assay: Cell cycle arrest in human HT-29 cells assessed as accumulation at G0/G1 phase at cytotoxic IC50 after 72 hrs by propidium iodide staining based flow cytometry (reference value: 55.18 +/- 0.22%); assay type: functional
HT-29 [23] = assay: Cell cycle arrest in human HT-29 cells assessed as accumulation at S phase at cytotoxic IC50 after 72 hrs by propidium iodide staining based flow cytometry (reference value: 48.31 +/- 1.49%); assay type: functional
HT-29 [24] = assay: Cell cycle arrest in human HT-29 cells assessed as accumulation at G2/M phase at cytotoxic IC50 after 72 hrs by propidium iodide staining based flow cytometry (reference value: 6.23 +/- 1.7%); assay type: functional
HepG2 [25] = assay: Cell cycle arrest in human HepG2 cells assessed as accumulation at G0/G1 phase at cytotoxic IC50 after 72 hrs by propidium iodide staining based flow cytometry (reference value: 39.41 +/- 1.56%); assay type: functional
HepG2 [26] = assay: Cell cycle arrest in human HepG2 cells assessed as accumulation at S phase at cytotoxic IC50 after 72 hrs by propidium iodide staining based flow cytometry (reference value: 54.71 +/- 2.37%); assay type: functional
HepG2 [27] = assay: Cell cycle arrest in human HepG2 cells assessed as accumulation at G2/M phase at cytotoxic IC50 after 72 hrs by propidium iodide staining based flow cytometry (reference value: 8.47 +/- 2.55%); assay type: functional
[28] = Disruption of mitochondrial membrane potential in mouse B16F10 cells assessed as rhodamine123 positive cells at cytotoxic IC50 after 72 hrs by propidium iodide staining based fluorescence spectroscopic analysis (reference value: 95.6 +/- 0.57%); assay type: functional, B16-F10
[29] = Disruption of mitochondrial membrane potential in mouse B16F10 cells assessed as rhodamine123 negative cells at cytotoxic IC50 after 72 hrs by propidium iodide staining based fluorescence spectroscopic analysis (reference value: 4.45 +/- 0.64%); assay type: functional, B16-F10
HT-29 [30] = assay: Disruption of mitochondrial membrane potential in human HT-29 cells assessed as rhodamine123 positive cells at cytotoxic IC50 after 72 hrs by propidium iodide staining based fluorescence spectroscopic analysis (reference value: 94.25 +/- 0.35%); assay type: functional
HT-29 [31] = assay: Disruption of mitochondrial membrane potential in human HT-29 cells assessed as rhodamine123 negative cells at cytotoxic IC50 after 72 hrs by propidium iodide staining based fluorescence spectroscopic analysis (reference value: 5.8 +/- 0.42%); assay type: functional
HepG2 [32] = assay: Disruption of mitochondrial membrane potential in human HepG2 cells assessed as rhodamine123 positive cells at cytotoxic IC50 after 72 hrs by propidium iodide staining based fluorescence spectroscopic analysis (reference value: 88.3 +/- 8.87%); assay type: functional
HepG2 [33] = assay: Disruption of mitochondrial membrane potential in human HepG2 cells assessed as rhodamine123 negative cells at cytotoxic IC50 after 72 hrs by propidium iodide staining based fluorescence spectroscopic analysis (reference value: 11.7 +/- 6.8%); assay type: functional
B16-F10 [34] = assay: Potency index, ratio of maslinic acid IC50 to compound IC50 for mouse B16F10 cells; assay type: functional
HT-29 [35] = assay: Potency index, ratio of maslinic acid IC50 to compound IC50 for human HT-29 cells; assay type: functional
HepG2 [36] = assay: Potency index, ratio of maslinic acid IC50 to compound IC50 for human HepG2 cells; assay type: functional

In the case of `COCCOCCOCC(=O)O[C@H]1CC[C@]2(C)[C@H]3CC=C4[C@@H]5CC(C)(C)CC[C@]5(C(=O)O)CC[C@@]4(C)[C@]3(C)CC[C@H]2C1(C)C`, the IC50 [1] is reported as 17.2 µM, the IC50 (HT-29 [2]) is reported as 13.5 µM and the IC50 (HepG2 [3]) is reported as 17.5 µM. For the same molecule, the “Ratio IC50” value (B16-F10 [4]) was 6.2, the “Ratio IC50” value (HT-29 [5]) was 31.9 and the “Ratio IC50” value (HepG2 [6]) was 12.1. It also gave an Activity [7] of 52.75%, an Activity [8] of 6.8% and an Activity [9] of 39.6%. For the same molecule, the Activity [10] was 0.35%, the Activity (HT-29 [11]) was 51.85% and the Activity (HT-29 [12]) was 34.7%. For the same molecule, the Activity (HT-29 [13]) was 13.45%, the Activity (HT-29 [14]) was 0% and the Activity (HepG2 [15]) was 43.5%. The Activity (HepG2 [16]) was 38.65%, the Activity (HepG2 [17]) was 17.7% and the Activity (HepG2 [18]) was 0.2%. For the same molecule, the Activity [19] was 74.28%, the Activity [20] was 25.44% and the Activity [21] was 0.28%. The Activity (HT-29 [22]) was 63.47%, the Activity (HT-29 [23]) was 49.98% and the Activity (HT-29 [24]) was 0%. For the same molecule, the Activity (HepG2 [25]) was 38.88%, the Activity (HepG2 [26]) was 45.44% and the Activity (HepG2 [27]) was 14.18%. The Activity [28] was 79.45%, the Activity [29] was 20.65% and the Activity (HT-29 [30]) was 88.65%. The Activity (HT-29 [31]) was 11.35%, the Activity (HepG2 [32]) was 13.95% and the Activity (HepG2 [33]) was 86.05%.
With `COCCOCCOCC(=O)O[C@@H]1C[C@]2(C)[C@H]3CC=C4[C@@H]5CC(C)(C)CC[C@]5(C(=O)OCc5ccccc5)CC[C@@]4(C)[C@]3(C)CC[C@H]2C(C)(C)[C@H]1OC(=O)COCCOCCOC` the IC50 [1] was 21.1 µM, the IC50 (HT-29 [2]) was 31.6 µM and the IC50 (HepG2 [3]) was 12.8 µM. The “Ratio IC50” value (B16-F10 [34]) was 1.7, the “Ratio IC50” value (HT-29 [35]) was 1 and the “Ratio IC50” value (HepG2 [36]) was 7.8. For the same molecule, the Activity [7] was 2.7%, the Activity [8] was 29.6% and the Activity [9] was 67.25%. The Activity [10] was 0.8%, the Activity (HT-29 [11]) was 48.95% and the Activity (HT-29 [12]) was 43.95%. It also gave an Activity (HT-29 [13]) of 6.7%, an Activity (HT-29 [14]) of 0.15% and an Activity (HepG2 [15]) of 37%. The Activity (HepG2 [16]) was 18.65%, the Activity (HepG2 [17]) was 44.35% and the Activity (HepG2 [18]) was 0%. For the same molecule, the Activity [19] was 83.03%, the Activity [20] was 13.13% and the Activity [21] was 3.85%. It also gave an Activity (HT-29 [22]) of 91.87%, an Activity (HT-29 [23]) of 6.63% and an Activity (HT-29 [24]) of 1.51%. For the same molecule, the Activity (HepG2 [25]) was 65.2%, the Activity (HepG2 [26]) was 19.76% and the Activity (HepG2 [27]) was 15.04%. It also gave an Activity [28] of 81.35%, an Activity [29] of 18.6% and an Activity (HT-29 [30]) of 3.15%. It also gave an Activity (HT-29 [31]) of 96.9%, an Activity (HepG2 [32]) of 45.7% and an Activity (HepG2 [33]) of 54.25%.
Work on `CC1(C)CC[C@]2(C(=O)NCCCOCCOCCOCCCN)CC[C@]3(C)C(=CC[C@@H]4[C@@]5(C)CC[C@H](O)C(C)(C)[C@@H]5CC[C@]43C)[C@@H]2C1` yielded an IC50 [1] of 3.78 µM, an IC50 (HT-29 [2]) of 3.58 µM and an IC50 (HepG2 [3]) of 0.22 µM. For the same molecule, the “Ratio IC50” value (B16-F10 [4]) was 28.1, the “Ratio IC50” value (HT-29 [5]) was 120.1 and the “Ratio IC50” value (HepG2 [6]) was 962.7. The Activity [7] was 27.55%, the Activity [8] was 59.65% and the Activity [9] was 12.85%. The Activity [10] was 0%, the Activity (HT-29 [11]) was 72.45% and the Activity (HT-29 [12]) was 19.7%. It also gave an Activity (HT-29 [13]) of 7.45%, an Activity (HT-29 [14]) of 0.25% and an Activity (HepG2 [15]) of 41.35%. It also gave an Activity (HepG2 [16]) of 35.9%, an Activity (HepG2 [17]) of 22.45% and an Activity (HepG2 [18]) of 0.35%. It also gave an Activity [19] of 63.89%, an Activity [20] of 31.33% and an Activity [21] of 4.78%. For the same molecule, the Activity (HT-29 [22]) was 87.11%, the Activity (HT-29 [23]) was 4.78% and the Activity (HT-29 [24]) was 8.12%. The Activity (HepG2 [25]) was 52.7%, the Activity (HepG2 [26]) was 46.97% and the Activity (HepG2 [27]) was 0.34%. The Activity [28] was 20.75%, the Activity [29] was 79.3% and the Activity (HT-29 [30]) was 23.75%. The Activity (HT-29 [31]) was 76.3%, the Activity (HepG2 [32]) was 80.45% and the Activity (HepG2 [33]) was 19.6%.
